From BindingDB's records for doi:10.1016/S0960-894X(01)80714-9 (1993)

Tests used:
[1] = The compound was evaluated in vitro for the inhibition of pancreatitic porcine elastase(PPE)
[2] = The compound was evaluated in vitro for the inhibition of rat leukocyte elastase(RLE)

| Compound | IC50 [1] | IC50 [2] |
| --- | --- | --- |
| CO[C@@H]1C(=O)N(C(C)=O)[C@@H]1c1ccccc1 [(3S,4R)-1-Acetyl-3-methoxy-4-phenyl-azetidin-2-one] | 0.7 µM | 0.4 µM |
| CCCC[C@@H]1C(=O)N(C(C)=O)[C@@H]1C(C)=O [(3S,4S)-1,4-Diacetyl-3-butyl-azetidin-2-one] | > 160 µM | 37 µM |
| CO[C@@H]1C(=O)N(C(C)=O)[C@@H]1C(C)=O [(3S,4S)-1,4-Diacetyl-3-methoxy-azetidin-2-one] | 26 µM | 11 µM |
